“Also recorded” adds a separate entry of the source. Like-named read-outs stand apart in the source and are kept apart here.
Assays:
AKT1 aa1-480 = biological target: T1, AKT1 aa1-480 (Homo sapiens, UniProt P31749); experiment: Kinase profiling; assay type: biochemical; conditions: 10 semi-logarithmic dilutions from 50 μM, singlicate
T1 construct: AKT1 aa1-480

CDK1/CycA2 = CDK1/CycA2 (Homo sapiens, UniProt P06493); experiment: Kinase profiling; assay type: biochemical; conditions: 10 semi-logarithmic dilutions from 50 μM, singlicate
Chain of CDK1/CycA2 (P06493 whole entry): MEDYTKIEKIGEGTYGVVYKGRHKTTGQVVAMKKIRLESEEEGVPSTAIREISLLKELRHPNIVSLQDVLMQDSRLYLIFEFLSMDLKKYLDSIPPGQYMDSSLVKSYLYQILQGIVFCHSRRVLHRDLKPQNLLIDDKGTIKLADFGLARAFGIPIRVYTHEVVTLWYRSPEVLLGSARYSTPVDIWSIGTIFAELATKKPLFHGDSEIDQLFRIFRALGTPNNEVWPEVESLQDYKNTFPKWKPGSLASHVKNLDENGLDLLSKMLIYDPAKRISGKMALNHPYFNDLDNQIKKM
Chain of CDK1/CycA2 (P20248 whole entry partner): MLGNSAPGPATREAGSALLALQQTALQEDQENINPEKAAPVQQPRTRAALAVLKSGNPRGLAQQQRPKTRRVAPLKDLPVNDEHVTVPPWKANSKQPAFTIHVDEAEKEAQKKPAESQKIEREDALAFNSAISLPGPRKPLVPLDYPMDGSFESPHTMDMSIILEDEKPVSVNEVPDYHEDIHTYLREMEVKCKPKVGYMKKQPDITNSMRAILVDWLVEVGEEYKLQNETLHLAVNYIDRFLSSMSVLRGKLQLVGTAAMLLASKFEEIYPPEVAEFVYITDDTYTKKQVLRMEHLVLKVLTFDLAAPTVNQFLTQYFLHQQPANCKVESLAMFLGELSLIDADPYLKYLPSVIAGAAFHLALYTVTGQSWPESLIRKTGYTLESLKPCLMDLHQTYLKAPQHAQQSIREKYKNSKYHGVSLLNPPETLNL

CDK12wt/CycK = CDK12wt/CycK (Homo sapiens, UniProt Q9NYV4); experiment: Kinase profiling; assay type: biochemical; conditions: 10 semi-logarithmic dilutions from 50 μM, singlicate
CDK19/CycC = CDK19/CycC (Homo sapiens, UniProt Q9BWU1); experiment: Kinase profiling; assay type: biochemical; conditions: 10 semi-logarithmic dilutions from 50 μM, singlicate
CDK2/CycA2 = CDK2/CycA2 (Homo sapiens, UniProt P24941); experiment: Kinase profiling; assay type: biochemical; conditions: 10 semi-logarithmic dilutions from 50 μM, singlicate
CDK2/CycE1 = CDK2/CycE1 (Homo sapiens, UniProt P24941); experiment: Kinase profiling; assay type: biochemical; conditions: 10 semi-logarithmic dilutions from 50 μM, singlicate
CDK3/CycC = CDK3/CycC (Homo sapiens, UniProt Q00526); experiment: Kinase profiling; assay type: biochemical; conditions: 10 semi-logarithmic dilutions from 50 μM, singlicate
Chain of CDK3/CycC (Q00526 whole entry): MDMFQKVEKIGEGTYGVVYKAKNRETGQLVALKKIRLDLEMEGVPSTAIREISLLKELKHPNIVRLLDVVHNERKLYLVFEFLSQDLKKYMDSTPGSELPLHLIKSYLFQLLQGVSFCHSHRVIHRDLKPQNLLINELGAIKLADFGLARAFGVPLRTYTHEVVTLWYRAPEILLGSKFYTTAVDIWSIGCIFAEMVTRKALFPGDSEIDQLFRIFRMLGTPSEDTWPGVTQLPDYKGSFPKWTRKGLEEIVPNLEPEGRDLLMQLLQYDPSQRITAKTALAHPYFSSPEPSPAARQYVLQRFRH
Chain of CDK3/CycC (P24863 whole entry partner): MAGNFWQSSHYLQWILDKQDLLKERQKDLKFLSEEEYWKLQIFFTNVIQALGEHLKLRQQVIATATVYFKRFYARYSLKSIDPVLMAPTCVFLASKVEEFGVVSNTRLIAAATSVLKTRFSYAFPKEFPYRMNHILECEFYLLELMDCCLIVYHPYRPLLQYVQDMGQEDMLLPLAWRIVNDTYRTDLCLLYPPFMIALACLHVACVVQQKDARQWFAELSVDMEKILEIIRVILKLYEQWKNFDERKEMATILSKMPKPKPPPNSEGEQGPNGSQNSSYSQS

CDK3/CycE1 = CDK3/CycE1 (Homo sapiens, UniProt Q00526); experiment: Kinase profiling; assay type: biochemical; conditions: 10 semi-logarithmic dilutions from 50 μM, singlicate
Chain of CDK3/CycE1 (Q00526 whole entry): as the sequence (Q00526 whole entry) above
Chain of CDK3/CycE1 (P24864 whole entry partner): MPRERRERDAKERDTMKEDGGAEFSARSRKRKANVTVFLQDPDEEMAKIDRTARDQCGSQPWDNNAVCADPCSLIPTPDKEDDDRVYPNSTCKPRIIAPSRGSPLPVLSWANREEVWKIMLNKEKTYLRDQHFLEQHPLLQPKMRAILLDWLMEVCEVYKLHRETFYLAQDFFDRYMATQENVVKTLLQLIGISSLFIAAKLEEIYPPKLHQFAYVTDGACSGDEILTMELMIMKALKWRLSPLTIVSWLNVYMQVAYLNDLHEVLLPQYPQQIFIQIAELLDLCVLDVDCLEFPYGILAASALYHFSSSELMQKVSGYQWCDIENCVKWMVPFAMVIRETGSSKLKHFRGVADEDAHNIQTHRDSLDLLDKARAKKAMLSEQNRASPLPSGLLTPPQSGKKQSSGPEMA

CDK4/CycD1 = CDK4/CycD1 (Homo sapiens, UniProt P11802); experiment: Kinase profiling; assay type: biochemical; conditions: 10 semi-logarithmic dilutions from 50 μM, singlicate
Chain of CDK4/CycD1 (P11802 whole entry): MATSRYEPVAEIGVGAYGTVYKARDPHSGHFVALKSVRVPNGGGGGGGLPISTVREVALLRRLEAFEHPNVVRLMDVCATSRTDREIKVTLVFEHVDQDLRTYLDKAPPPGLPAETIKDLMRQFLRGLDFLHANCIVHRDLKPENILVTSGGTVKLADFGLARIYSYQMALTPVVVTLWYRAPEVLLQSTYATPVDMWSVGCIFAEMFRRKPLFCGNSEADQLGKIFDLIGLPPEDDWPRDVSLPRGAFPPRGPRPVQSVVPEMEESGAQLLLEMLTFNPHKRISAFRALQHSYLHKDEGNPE
Chain of CDK4/CycD1 (P24385 whole entry partner): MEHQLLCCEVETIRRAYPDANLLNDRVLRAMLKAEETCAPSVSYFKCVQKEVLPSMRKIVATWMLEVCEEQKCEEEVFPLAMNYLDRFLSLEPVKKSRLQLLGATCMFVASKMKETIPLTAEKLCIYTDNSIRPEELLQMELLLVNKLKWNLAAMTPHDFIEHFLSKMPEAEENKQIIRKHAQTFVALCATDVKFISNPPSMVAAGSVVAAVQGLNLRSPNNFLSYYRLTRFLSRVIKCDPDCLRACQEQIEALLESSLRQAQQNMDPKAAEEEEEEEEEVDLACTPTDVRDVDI

CDK4/CycD3 = CDK4/CycD3 (Homo sapiens, UniProt P11802); experiment: Kinase profiling; assay type: biochemical; conditions: 10 semi-logarithmic dilutions from 50 μM, singlicate
CDK5/p25NCK = CDK5/p25NCK (Homo sapiens, UniProt Q00535); experiment: Kinase profiling; assay type: biochemical; conditions: 10 semi-logarithmic dilutions from 50 μM, singlicate
CDK5/p35NCK = CDK5/p35NCK (Homo sapiens, UniProt Q00535); experiment: Kinase profiling; assay type: biochemical; conditions: 10 semi-logarithmic dilutions from 50 μM, singlicate
CDK6/CycD1 = CDK6/CycD1 (Homo sapiens, UniProt Q00534); experiment: Kinase profiling; assay type: biochemical; conditions: 10 semi-logarithmic dilutions from 50 μM, singlicate
Chain of CDK6/CycD1 (Q00534 whole entry): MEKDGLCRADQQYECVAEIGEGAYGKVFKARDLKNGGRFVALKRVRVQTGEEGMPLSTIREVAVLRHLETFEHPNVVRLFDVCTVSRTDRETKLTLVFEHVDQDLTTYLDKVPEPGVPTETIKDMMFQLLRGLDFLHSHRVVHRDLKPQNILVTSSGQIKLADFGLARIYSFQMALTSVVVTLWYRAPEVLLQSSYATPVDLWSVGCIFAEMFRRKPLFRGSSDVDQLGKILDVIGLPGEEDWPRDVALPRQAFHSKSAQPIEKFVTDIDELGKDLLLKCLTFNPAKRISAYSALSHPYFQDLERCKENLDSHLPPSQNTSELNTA
Chain of CDK6/CycD1 (P24385 whole entry partner): as the sequence (P24385 whole entry partner) above

CDK7/CycH/MAT1 = CDK7/CycH/MAT1 (Homo sapiens, UniProt P50613); experiment: Kinase profiling; assay type: biochemical; conditions: 10 semi-logarithmic dilutions from 50 μM, singlicate
Chain of CDK7/CycH/MAT1 (P50613 whole entry): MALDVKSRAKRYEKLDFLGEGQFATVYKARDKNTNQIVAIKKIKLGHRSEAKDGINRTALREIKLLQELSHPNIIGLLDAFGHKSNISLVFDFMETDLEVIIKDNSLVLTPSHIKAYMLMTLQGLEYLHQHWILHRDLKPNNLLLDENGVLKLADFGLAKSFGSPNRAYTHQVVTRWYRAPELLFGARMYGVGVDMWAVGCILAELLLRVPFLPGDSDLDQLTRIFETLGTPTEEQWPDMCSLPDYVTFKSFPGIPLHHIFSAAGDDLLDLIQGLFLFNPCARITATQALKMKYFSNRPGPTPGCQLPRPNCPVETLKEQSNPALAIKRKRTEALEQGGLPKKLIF
Chain of CDK7/CycH/MAT1 (P51946 whole entry partner): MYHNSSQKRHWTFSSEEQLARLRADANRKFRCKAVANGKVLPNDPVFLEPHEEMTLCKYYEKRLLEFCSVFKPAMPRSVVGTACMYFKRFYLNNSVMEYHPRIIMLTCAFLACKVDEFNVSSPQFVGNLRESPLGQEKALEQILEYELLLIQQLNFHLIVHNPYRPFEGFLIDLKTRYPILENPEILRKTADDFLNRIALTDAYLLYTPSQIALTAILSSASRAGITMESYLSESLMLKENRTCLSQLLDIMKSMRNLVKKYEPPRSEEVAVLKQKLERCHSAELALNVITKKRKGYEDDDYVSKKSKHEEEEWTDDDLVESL
Chain of CDK7/CycH/MAT1 (P51948 whole entry partner): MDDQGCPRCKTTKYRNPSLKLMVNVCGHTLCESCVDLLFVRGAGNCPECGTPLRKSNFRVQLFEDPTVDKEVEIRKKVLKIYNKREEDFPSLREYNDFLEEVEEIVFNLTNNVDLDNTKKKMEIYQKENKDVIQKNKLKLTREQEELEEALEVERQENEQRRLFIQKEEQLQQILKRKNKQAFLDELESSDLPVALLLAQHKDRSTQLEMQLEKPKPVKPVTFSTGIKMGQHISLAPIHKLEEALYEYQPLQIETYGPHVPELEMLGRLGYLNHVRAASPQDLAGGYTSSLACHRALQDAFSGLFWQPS

CDK8/CycC = CDK8/CycC (Homo sapiens, UniProt P49336); experiment: Kinase profiling; assay type: biochemical; conditions: 10 semi-logarithmic dilutions from 50 μM, singlicate
DYRK1A = DYRK1A (Homo sapiens, UniProt Q13627); experiment: Kinase profiling; assay type: biochemical; conditions: 10 semi-logarithmic dilutions from 50 μM, singlicate
ERK1 = ERK1 (Homo sapiens, UniProt P27361); experiment: Kinase profiling; assay type: biochemical; conditions: 10 semi-logarithmic dilutions from 50 μM, singlicate
Chain of ERK1 (P27361 whole entry): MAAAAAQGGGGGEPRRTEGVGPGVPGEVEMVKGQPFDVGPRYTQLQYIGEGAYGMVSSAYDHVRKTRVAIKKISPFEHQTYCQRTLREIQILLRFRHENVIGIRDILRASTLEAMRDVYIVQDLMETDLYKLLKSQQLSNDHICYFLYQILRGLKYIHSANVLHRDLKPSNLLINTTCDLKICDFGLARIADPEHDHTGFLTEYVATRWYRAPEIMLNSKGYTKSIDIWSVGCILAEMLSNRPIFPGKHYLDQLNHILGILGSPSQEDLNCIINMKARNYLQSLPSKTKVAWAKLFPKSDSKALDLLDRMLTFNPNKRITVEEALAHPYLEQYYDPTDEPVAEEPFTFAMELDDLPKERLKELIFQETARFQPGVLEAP

HIPK2 = HIPK2 (Homo sapiens, UniProt Q9H2X6); experiment: Kinase profiling; assay type: biochemical; conditions: 10 semi-logarithmic dilutions from 50 μM, singlicate; read-out: IC50 HIPK2
PCTAIRE1/CycY = PCTAIRE1/CycY (Homo sapiens, UniProt Q00536); experiment: Kinase profiling; assay type: biochemical; conditions: 10 semi-logarithmic dilutions from 50 μM, singlicate
[1] = tested on: H460 lung carcinoma cell line; experiment: Proliferation assay: determination of GI50; assay type: cell-based, human; conditions: Homo sapiens, NCI-H460; Table 3; 48 h; n = 2 independent experiments
Description: (§1) The following human tumor cell lines, all Retinoblastoma (Rb)-proficient, were used in this study: MDA-MB231 (breast cancer), MDA-MB453 (breast cancer), U87MG (glioblastoma) and H460 (lung cancer). MDA-MB468 (breast cancer) and SW1783 (glioblastoma) Rb-deficient cells were also included in the study, as well as the MCF10A non-transformed mammary epithelial cell line. Tumor cell lines were maintained in DMEM or RPMI-1640 medium, depending on the cell line, supplemented with 10% FBS. MCF10A cells were grown in complete mammary epithelial growth medium (MEGM, Lonza). Cell lines were authenticated by short tandem repeat (STR) loci profiling with the GenePrint® 10 System (Promega).
(§2) All human cancer cell lines (Table 2) were obtained from the American Type Culture Collection, and were maintained in DMEM (Hyclone) or RPMI-1640 medium (Sigma) supplemented with 10% fetal bovine serum (Sigma). Non-transformed MCF10 cell line was maintained in MEGM Mammary Epithelial Cell Growth Medium (Lonza). Immortalized mouse embryonic fibroblasts (MEFs) were maintained in DMEM with 10% fetal bovine serum.
(§3) 48 h later cells were fixed with PFA 4% for 15 minutes, stained with 10 μg/ml Hoechst 33342 (Molecular Probes, Thermo Fisher) for 30 minutes and washed twice with PBS. Cells were imaged in a high content screening system (Opera Phoenix™, Perkin Elmer) using a 20× dry objective (30 fields/well). Cell counts were determined by the Opera software (Perkin Elmer) and data were further processed with SPSS software. GI50 was calculated by estimating the absolute IC50 using dose-response inhibition tool in Prism6 (Graphpad Software Inc.).

[2] = tested on: MCF10 non-transformed mammary epithelial cell line; experiment: Proliferation assay: determination of GI50; assay type: cell-based, human; conditions: Homo sapiens, MCF10; Table 3; 48 h; n = 2 independent experiments
Description: as §1, §2, §3

[3] = tested on: MDA-MB-231 breast carcinoma cell line; experiment: Proliferation assay: determination of GI50; assay type: cell-based, human; conditions: Homo sapiens, MDA-MB-231
Description: as §1, §2, §3

[4] = tested on: U87MG glioblastoma cell line; experiment: Proliferation assay: determination of GI50; assay type: cell-based, human; conditions: Homo sapiens, U-87 MG
Description: as §1, §2, §3

[5] = tested on: MDA-MB-231 human breast cancer cells; experiment: Cell cycle analysis (DNA content, flow cytometry); assay type: cell-based; conditions: GI50 concentration; FIG. 1
Description: FIG. 1 depicts DNA content profiles of MDA-MB-231 human breast cancer cells treated with subject compounds or commercial CDK inhibitors, showing the percentage of cells at the different cell cycle phases after 48 hours of the treatments indicated. (n=6 technical replicates).
Cells were collected by trypsinization, washed with PBS and fixed with cold 70% ethanol. Cells were treated with 250 μg/ml RNase (Qiagen) for 30 minutes at 37° C. and stained with 10 μg/ml Propidium Iodide (Sigma). Cell cycle was analyzed by flow cytometry using a LSR Fortessa Analyzer. Cell cycle profiles were generated and analyzed with FlowJo software.
Cells were collected by tripsinization at several times after treatment with the indicated compounds and, then, fixed with cold 70% Ethanol. DNA content was determined by staining with propidium iodide (10 μg/ml, Sigma Aldrich). Data acquisition was performed with a LSR Fortessa analyzer (BD Biosciences) and analysed using FlowJo software.

[6] = Table 3, 48 h, n = 3 independent experiments, read-out: GI50 MDA-MB231
[7] = Table 3, 48 h, n = 3 independent experiments, read-out: GI50 U87MG
[8] = Table 4, n = 4, read-out: Growth inhibition GI50, Breast cancer pRB Wild-Type MDA-MB-231
[9] = Table 4, n = 4, read-out: Growth inhibition GI50, Glioblastoma pRB Wild-Type U87MG

T1 sequence (P31749 whole entry, the tested form may be a part): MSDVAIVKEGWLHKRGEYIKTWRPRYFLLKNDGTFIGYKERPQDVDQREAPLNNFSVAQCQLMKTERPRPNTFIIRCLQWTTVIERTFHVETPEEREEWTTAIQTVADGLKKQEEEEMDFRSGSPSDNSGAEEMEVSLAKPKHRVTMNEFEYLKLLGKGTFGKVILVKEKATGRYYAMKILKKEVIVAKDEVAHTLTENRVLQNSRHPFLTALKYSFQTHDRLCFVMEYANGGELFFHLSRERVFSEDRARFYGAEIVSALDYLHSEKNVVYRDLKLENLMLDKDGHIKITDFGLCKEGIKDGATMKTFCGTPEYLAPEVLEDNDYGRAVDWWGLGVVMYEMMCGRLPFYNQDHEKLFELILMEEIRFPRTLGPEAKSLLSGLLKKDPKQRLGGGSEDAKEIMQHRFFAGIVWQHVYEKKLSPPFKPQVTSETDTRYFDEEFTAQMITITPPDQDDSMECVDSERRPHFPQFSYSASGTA

Compound	IC50 (AKT1 aa1-480)	IC50 (CDK1/CycA2)	IC50 (CDK12wt/CycK)	IC50 (CDK19/CycC)	IC50 (CDK2/CycA2)	IC50 (CDK2/CycE1)	IC50 (CDK3/CycC)	IC50 (CDK3/CycE1)	IC50 (CDK4/CycD1)	IC50 (CDK4/CycD3)	IC50 (CDK5/p25NCK)	IC50 (CDK5/p35NCK)	IC50 (CDK6/CycD1)	IC50 (CDK7/CycH/MAT1)	IC50 (CDK8/CycC)	IC50 (DYRK1A)	IC50 (ERK1)	IC50 (HIPK2)	IC50 (PCTAIRE1/CycY)	GI50 [1]	also measured
CC(O)CCN1CCN(c2ccc(Nc3ncc4ccc(=O)n([C@@H]5CC6CCC5C6)c4n3)cc2)CC1 (stereo partly drawn) [PS005, 8-((2R)-bicyclo[2.2.1]heptan-2-yl)-2-((4-(4-(3-hydroxybutyl)piperazin-1-yl)phenyl)amino)pyrido[2,3-d]pyrimidin-7(8H)-one]	> 50 µM	0.18 µM	0.0308 µM	0.234 µM	0.013 µM	0.0172 µM	0.0541 µM	0.0272 µM	< 0.0015 µM	0.00297 µM	0.0725 µM	0.0347 µM	< 0.0015 µM	0.0723 µM	0.0171 µM	1.38 µM	4.53 µM	6.06 µM	0.00769 µM	0.13 µM	GI50 [2]: 0.05 µM; GI50 [3, 6]: 0.14 µM; GI50 [4, 7]: 0.05 µM; cell cycle arrest by DNA content [5]: accumulation of cells both in G1 and G2/M phases; cell death (sub-G1 accumulation) [5]: led to cell death
CC(=O)c1c(C)c2cnc(Nc3ccc(N4CCC(CCCO)CC4)cc3)nc2n(C2CCCC2)c1=O [PS009, 6-acetyl-8-cyclopentyl-2-((4-(4-(3-hydroxypropyl)piperidin-1-yl)phenyl)amino)-5-methylpyrido[2,3-d]pyrimidin-7(8H)-one]	> 50 µM	> 50 µM	17.4 µM	36.4 µM	0.768 µM	2.94 µM	7.66 µM	17.1 µM	0.026 µM	0.0554 µM	4.85 µM	1.86 µM	0.013 µM	30.8 µM	> 50 µM	> 50 µM	48.9 µM	> 50 µM	> 50 µM	1.55 µM	GI50 [2]: 1.17 µM; GI50 [3, 6]: 3 µM; GI50 [3, 8]: 3.3 µM; GI50 [4, 7]: 0.9 µM; GI50 [4, 9]: 6.9 µM; cell cycle arrest by DNA content [5]: induced accumulation of cells in G0/G1; also recorded: arrested cells predominantly in G1
CC(O)CCC1CCN(c2ccc(Nc3ncc4ccc(=O)n([C@@H]5CC6CCC5C6)c4n3)cc2)CC1 (stereo partly drawn) [PS004, 8-((2R)-bicyclo[2.2.1]heptan-2-yl)-2-((4-(4-(3-hydroxybutyl)piperidin-1-yl)phenyl)amino)pyrido[2,3-d]pyrimidin-7(8H)-one]	> 50 µM	14.5 µM	0.923 µM	9.6 µM	0.452 µM	0.303 µM	2.1 µM	0.654 µM	0.0353 µM	0.123 µM	4.41 µM	1.67 µM	0.0274 µM	21.7 µM	0.162 µM	> 50 µM	37.8 µM	> 50 µM	13.5 µM	1.4 µM	GI50 [2]: 1.43 µM; GI50 [3, 6]: 3.6 µM; GI50 [3, 8]: 3.5 µM; GI50 [4, 7]: 4.5 µM; GI50 [4, 9]: 5.5 µM; cell cycle arrest by DNA content [5]: accumulation of cells both in G1 and G2/M phases; also recorded: arresting cells in G1/G2/M cell cycle phases
CC(O)COC1CCN(c2ccc(Nc3ncc4ccc(=O)n([C@@H]5CC6CCC5C6)c4n3)cc2)CC1 (stereo partly drawn) [PS006, 8-((2R)-bicyclo[2.2.1]heptan-2-yl)-2-((4-(4-(2-hydroxypropoxy)piperidin-1-yl)phenyl)amino)pyrido[2,3-d]pyrimidin-7(8H)-one]	> 50 µM	4.28 µM	1.01 µM	4.13 µM	0.203 µM	0.108 µM	0.885 µM	0.306 µM	0.0189 µM	0.0466 µM	1.46 µM	0.771 µM	0.0125 µM	8 µM	0.103 µM	46.8 µM	8.32 µM	14.7 µM	3.84 µM	0.19 µM	GI50 [2]: 0.42 µM; GI50 [3, 6]: 1.4 µM; GI50 [3, 8]: 1.7 µM; GI50 [4, 7]: 2.34 µM; GI50 [4, 9]: 2.2 µM; cell cycle arrest by DNA content [5]: induced G2/M arrest; also recorded: arrested cells in G2/M phases
CC(=O)c1c(C)c2cnc(Nc3ccc(N4CCNCC4)cc3)nc2n([C@@H]2CC3CCC2C3)c1=O (stereo partly drawn) [PS010, 6-acetyl-8-((2R)-bicyclo[2.2.1]heptan-2-yl)-5-methyl-2-((4-(piperazin-1-yl)phenyl)amino)pyrido[2,3-d]pyrimidin-7(8H)-one]	> 50 µM	4.21 µM	0.799 µM	2.85 µM	0.222 µM	0.277 µM	0.17 µM	0.7 µM	0.00315 µM	0.00548 µM	0.395 µM	0.113 µM	0.00183 µM	2.03 µM	16.8 µM	3.65 µM	22.1 µM	0.187 µM	4.31 µM	0.37 µM	GI50 [2]: 0.08 µM; GI50 [3, 6]: 0.5 µM; GI50 [4, 7]: 0.16 µM; cell cycle arrest by DNA content [5]: accumulation of cells both in G1 and G2/M phases; cell death (sub-G1 accumulation) [5]: led to cell death

— patent publication US20230042936A1, “PYRIDO[2,3-d]PYRIMIDIN-7(8H)-ONES AS CDK INHIBITORS” (PROSENESTAR LLC, priority 2020, published 2023)
